Data as given in the NIST ThermoML archive (doi:10.1016/j.jct.2008.09.008).

Test: wn = mass fraction of the nth substance listed
Conditions: 101 kPa, Liquid; for viscosity: Capillary tube (Ostwald / Ubbelohde) method; for speed of sound: Linear variable-path acoustic interferometer; for mass density: Pycnometric method

OCCCCO [1,4-butanediol] + O
Conditions	mass density, w1 = 0.2 [kg/m3]	mass density, w1 = 0.4 [kg/m3]	speed of sound, w1 = 0.2 [m/s]	speed of sound, w1 = 0.4 [m/s]	viscosity, w1 = 0.2 [mPa·s]	viscosity, w1 = 0.4 [mPa·s]
298.15 K	1004.93	1013.41	1605.3	1684.2	3.421	6.454
303.15 K	1002.93	1010.75	1606.6	1677.4	2.966	5.738
308.15 K	1000.79	1008.04	1607.8	1670.7	2.542	4.993
313.15 K	998.53	1005.28	1608.5	1664	2.142	4.221
318.15 K	996.15	1002.46	1609.3	1657.2	1.774	3.421
